Data on one molecule can be found in patent US20040034006A1, “Method of inactivating viral particles in a blood product” (priority 2000, published 2004).

Where “and” joins values, the source holds several entries; their conditions need not be identical. Identical values can stand only once. Where only a bound is given, the exact number is not on record here.

One data set relates to red blood cells. Nature of the data set: in vivo survival of 51Cr-labeled RBC photodynamically treated and re-infused. Particulars: one value per monkey (BB26, CO33).
Another data set concerns S. aureus. Nature of the data set: photodynamic inactivation of bacteria with varying amounts of light. The note with it: 25 uM; dependent on amount of light (kJ/m^2); drops from 100%; FIG. 5. Type of data set: cell-based.
For another data set, the system named is P. aeruginosa. The description is as above. Particulars: 25 uM; dependent on amount of light (kJ/m^2); drops from 100%; FIG. 5. The data set is classed as cell-based.

In the case of `C[n+]1ccc(-c2c3nc(c(-c4cc[n+](C)cc4)c4ccc([nH]4)c(-c4cc[n+](C)cc4)c4nc(c(-c5ccccc5)c5ccc2[nH]5)C=C4)C=C3)cc1.[Cl-].[Cl-].[Cl-]` [Sylsens, mono-phenyl-tri-(N-methyl-4-pyridyl)-porphyrin chloride], the “recovery (%) of red blood cells 24 h after re-infusion” value is 75% and 102% with red blood cells (Treated I: re-infused immediately after treatment); 71% and 72% with red blood cells (Treated II: re-infused after 5 weeks of storage after treatment). Also, the “inactivation of bacteria, percentage remaining” value in the data set on S. aureus and with P. aeruginosa was at most 0.001% in each case.
